Measured values reported in US11083773B2, “Peptides that block leukocyte recruitment and methods of use” (ARCH CANCER THERAPEUTICS, INC., priority 2014, dated 2021).

How the values were obtained:
[1] = tested on: 4T1 murine breast cancer cells; assay: Intrasplenic injection of 4T1 murine breast cancer cells, liver metastasis; assay type: in vivo, mouse; details: 4-week post injection; control phage or LSALT expressing phage
[2] = tested on: 70 W human melanoma cells; assay: Tail vein injection of 70 W human melanoma cells expressing luciferase, lung tumor burden; assay type: in vivo, mice
Method: FIG. 13A-13F show the tumor burden in lung tissue from mice injected via tail vein with 1×10^6 70 W human melanoma cells expressing luciferase, with or without prior injection of 50 μM or 500 μM LSALT peptide (13A-13C) and representative images of lungs with visible melanotic lung […] in mice injected via tail vein with 1×10^6 70 W human melanoma cells expressing luciferase, with or without prior injection of 50 μM or 500 μM LSALT peptide mice (13D-13F).
FIG. 14A-14D show Xenogen images of lungs from mice injected via tail vein with human melanoma cells expressing luciferase with (14B) and without (14A) pretreatment with LSALT; and Xenogen images of lungs from mice injected treated as described for FIGS. 13A and 13B, and in the presence (14D) and absence (14C) of neutrophil depletion using anti-Ly6G/GRI antibody.
In one treatment study, […] melanoma cells expressing luciferase were injected via tail vein with or without prior injection of 50 μM or 500 μM LSALT peptide.
Animals were treated as above in the absence or presence of Neutrophil depletion using Anti-Ly6G/GR1, and the animals were imaged with the Xenogen light system.

[3] = tested on: 143B human osteosarcoma cells; assay: Tail vein injection of 143B human osteosarcoma cells, mouse model for metastasis; assay type: in vivo
Method: 5×10^5 143B human osteosarcoma cells stably expressing luciferase were injected into the tail vein of animals 5 mins after IV delivery of PBS or LSALT-peptide. Animals were sacrificed after 3 weeks. Lungs were then harvested, fixed in formalin, and embedded in paraffin. […] Metastatic lesions were visualized by staining human 143B osteosarcoma cells with anti-human nucleolin (brown). […] PBS n=4. LSALT-peptide n=6.
In a similar model, 5×10^5 143B human osteosarcoma cells stably expressing luciferase were injected into the tail vein of animals 5 mins after IV delivery of PBS or LSALT-peptide. Animals were imaged weekly using bioluminescence imaging (Xenogen, IVIS 200).

BALB/c mice = assay: LPS intoxication model of sepsis; assay type: in vivo; details: versus control-bacteriophage/LPS and LPS only
Excerpt: An intoxication model of sepsis was used to assess peptide efficacy on sepsis. In intoxication models, mice are challenged with a noninfectious, proinflammatory compound, such as LPS or killed bacteria. In the present study, protocols were used that followed Andonegui G, et al., J Clin Invest. 2009 July; 119(7):1921-30; and Yipp B G, et al. J Immunol. 2002 May 1; 168(9):4650-8.
Briefly, purified LPS isolated from E. Coli was used to initiate endotoxemia response in BALB/c mice 6-8 weeks old. Mice were injected with LSALT bacteriophage that contain lethal amounts of LPS endotoxin.
When the animals started to show signs of distress they were sacrificed by euthanasia. All mice treated in this group (5 out of 5) had to be sacrificed due to a septic response.

[4] = prior injection of 50 μM or 500 μM, 4 weeks post-injection

## LSALTPSPSWLKYKAL (listed as Homo sapiens) [LSALT peptide]
[1]
  FIG. 12 result, printed as number of neutrophils present in liver sinusoid tissue: significantly reduced the number of neutrophils present in liver sinusoid tissue
[2]; neutrophil depletion using Anti-Ly6G/GR1
  tumor burden by Xenogen imaging with neutrophil depletion (FIGS. 14C, 14D): the same result was seen
[2]; [4]
  tumor burden in the lungs, histology and excised lungs (FIG. 13): the least tumor burden
  visible melanotic lung nodules (FIG. 13): least frequently
[2]; without neutrophil depletion
  tumor burden by Xenogen imaging (FIGS. 14A, 14B): progressively less tumor burden
[3]; IV delivery 5 mins before cells, 3 weeks post injection
  metastatic burden in mouse liver by bioluminescence (FIG. 16): reduction in bioluminescence
[3]; IV delivery 5 mins before cells, 3 weeks, histological sections
  number of metastatic lesions in mouse lung (FIG. 15): reduction in metastatic lesions
[3]; mouse, in vivo
  metastatic spread of osteosarcoma cell line: blocks the metastatic spread of an osteosarcoma cell line to the liver
BALB/c mice
  neutrophil adhesion in sinusoids / neutrophil recruitment to the liver (FIG. 17A): reduced neutrophil recruitment to the liver
